Measurements from patent US8338392B2, “MicroRNA modulators and method for identifying and using the same” (The Wistar Institute, priority 2008, dated 2012).
“Also recorded” adds a separate entry of the source.

Assays:
Format in all cases: cell-based, human
Luc-Linker control = Luc-Linker control luciferase reporter in HeLa cells; conditions: 10 μM, relative to DMSO, listed as diazobenzene 2
Source text: (§1) MicroRNA miR-21 was selected as a target miRNA due to its involvement as an anti-apoptotic factor in cancer cells and its elevated levels in various cancers such as breast, ovarian, and lung cancer as well as glioblastoma (Chan, et al. (2005) Cancer Res. 65:6029). Lentiviral reporter constructs for miRNA activity were assembled by introducing the complementary sequences of mature miR-21 (5′-UAGCUUAUCAGACUGAUGUUGA-3′; SEQ ID NO:13), miR-30A (5′-CUUUCAGUCGGAUGUUUGCAGC-3′; SEQ ID NO:14) as a specificity control, and a linker sequence (a previously present multiple-cloning site with no detectable recognition by natural miRNAs) downstream of a luciferase reporter gene as a negative control (FIG. 1).
(§2) Luc-miR-21, Luc-miR-30A, and Luc-linker (control) were, by viral infection, introduced into HeLa cells, which express high levels of miR-21, but only low levels of miR-30A (Cheng, et al. (2005) Nucl. Acids Res. 33:1290).
(§3) It was subsequently determined whether Compound 2 was a specific inhibitor of miR-21 or whether it could interfere with the general miRNA biogenesis pathway. Thus, HeLa cells stably expressing both the miR-30 luciferase reporter construct and miR-30 were treated with Compound 2.

mature miR-30 = test: Quantitative RT-PCR of mature miR-30; conditions: MDA-MB-231, MCF-7 and A172 cell lines
Source text: (§4) UNG (Applied Biosystems). […] (Sigma). […] ID NO:18); E-cadherin: forward [NT] ID NO:19), reverse [NT] ID NO:20); Fibronectin: forward [NT] ID NO:21), reverse [NT] ID NO:22); RAP1A: forward [NT] ID NO:23), reverse [NT]

miR-30 = miR-30 luciferase reporter in HeLa cells expressing miR-30; conditions: HeLa cells expressing miR-30 reporter and miR-30, 10 μM
Source text: as §1
The specificity of the reporter system was tested by assaying cells which contained both the Luc-miR-30A reporter and a construct expressing exogenous miR-30.
as §3

mature miR-21 = test: Quantitative RT-PCR of mature miR-21; conditions: for mature miR-21 expression upon treatment: HCT116 colon cancer cells and A172 glioblastoma cells
Source text: as §4

mature miR-93 = test: Quantitative RT-PCR of mature miR-93; conditions: MDA-MB-231, MCF-7 and A172 cell lines
Source text: as §4

[1] = system: primary miR-21 (pri-miR-21); test: Quantitative RT-PCR of primary miR-21; conditions: for primary miR-21 expression upon treatment: HCT116 colon cancer cells and A172 glioblastoma cells
Source text: UNG (Applied Biosystems). […] (Sigma).

miR-21 = test: Luc-miR-21 luciferase reporter assay in HeLa cells; conditions: for Luciferase Assay: HeLa cells with Luc-miR-21 reporter, screen at 10 μM, 48 hours
Source text: as §1, §2
To illustrate the method of the present invention, a primary screen of >1000 compounds was conducted. The library was composed of a collection of novel compounds and the Library of Pharmacologically Active Compounds (LOPAC library, Sigma-Aldrich, St Louis, Mo.). All compounds were stored at a 10 mM concentration in DMSO to keep the DMSO concentration in the actual screen at 0.1% thereby minimizing toxicity. HeLa cells stably expressing the miR-reporter were treated with DMSO ranging from 0.1-1%. Luciferase signals were determined 48 hours after the treatment.
HeLa cells (2500 cells) were plated in each well of 384-well plate 24 hour before the addition of compounds. Compounds at 10 μM final concentration were added to each well. Luciferase signal were determined 48 hours after compound treatment. Using this screening assay, compound 1 was identified as a miR-21 antagonist.

[2] = system: HCT116 colon cancer cells; test: Cell proliferation of HCT116 cells, drug combinations
Source text: The % activity indicates % live cell activity.

[3] = MDA-MB-231, MCF-7 and A172 cell lines

C#CCNC(=O)c1ccc(/N=N/c2ccccc2)cc1 [Compound 2, (E)-4-(Phenyldiazenyl)-N-(prop-2-ynyl)benzamide]
effect on luciferase signal, Luc-Linker control (Luc-Linker control): does not affect; also recorded: did not affect the luciferase signal | effect on mature miR-30 (mature miR-30): no effect | effect on luciferase signal, miR-30 reporter (miR-30): no increase of the luciferase signal was detected | effect on luciferase signal, miR-30 reporter (miR-30; listed as diazobenzene 2): does not affect | effect on mature miR-21 (mature miR-21; [3]): suppressed | effect on mature miR-93 (mature miR-93): no effect | effect on primary miR-21 [1, 3]: suppressed | fold increase of the luciferase signal (miR-21; 10 μM, HeLa cells): 5 fold | Luciferase Assay (miR-21): 4.83 | proliferation of HCT116 cells, combination with 5-FU ([2]; combination with 5-FU): synergistic effect; also recorded: synergistically decrease the proliferation | proliferation of HCT116 cells, combination with Curcumin ([2]; combination with Curcumin): synergistic effect; also recorded: synergistically decrease the proliferation

O=c1[nH]cc(F)c(=O)[nH]1 [Compound 5-FU, 5-fluorouracil]
mature miR-21 expression upon treatment (mature miR-21): increased | primary miR-21 expression upon treatment [1]: increased

C[C@]12CC[C@@H]3c4ccc(O)cc4CC[C@H]3[C@@H]1CCC2=O [Estrone, estrone, reference compound]
Luciferase Assay (miR-21): 2.76

O=C1c2cc3c(cc2-c2[nH]c(=O)c4ccccc4c21)OCO3 [Compound 5]
Luciferase Assay (miR-21): 2.92

Cn1c2c(c3ccccc3c1=O)C(=O)c1cc3c(cc1-2)OCO3 [Compound 4]
Luciferase Assay (miR-21): 3.12

COc1cc2c(cc1N)C1CC[C@]3(C)C(=O)CCC3C1CC2 (stereo partly shown) [Compound 8]
Luciferase Assay (miR-21): 3.50

COc1cc(/C=C/C(=O)CC(=O)/C=C/c2ccc(O)c(OC)c2)ccc1O [Curcumin, curcumin]
mature miR-21 expression upon treatment (mature miR-21): increased | primary miR-21 expression upon treatment [1]: increased

COc1ccc2c(c1N)CCC1C2CC[C@]2(C)C(=O)CCC12 (stereo partly shown) [Compound 7]
Luciferase Assay (miR-21): 3.04-3.87

COc1ccc2c(c1[N+](=O)[O-])CCC1C2CC[C@]2(C)C(=O)CCC12 (stereo partly shown) [Compound 6]
Luciferase Assay (miR-21): 3.34

C#CCNC(=O)c1ccc(NNc2ccccc2)cc1 [Compound 3]
Luciferase Assay (miR-21): 3.67
